Laboratory results taken from patent US5552384A, “Antiherpes compositions and method of use” (priority 1990, dated 1996).
Like-named read-outs stand apart in the source and are kept apart here. Square brackets hold non-standard residues; d marks the D form. Peptide text beside a SMILES is read from it. * marks the point of attachment. Asp(3,3-(CH2)4) = N[C@H](C(=O)O)C1(C(=O)O)CCCC1; Leu(γ-Me)ol = CC(C)(C)C[C@@H](CO)N*; Hydrocinnamoyl = O=C(CCc1ccccc1)*; Tle = CC(C)(C)[C@H](N)C(=O)O; NMeV = CN[C@H](C(=O)O)C(C)C; Pyrrolidide = C1CCN(*)C1

Columns and labels:
HSV-2 = assay: microbe, parasite or virus in culture; format: cell-based, HSV-2 (strain HG-52)
Description: BHK-21/C13 cells (ATCC CCL 10) are incubated for two days in 150 cm^2 T-flasks (1.5×10^6 cells/flask) with alpha-MEM medium (Gibco Canada Inc., Burlington, Ontario, Canada) supplemented with 8% (v/v) fetal bovine serum (FBS, Gibco Canada Inc.). The cells are trypsinized and then transferred to fresh media in a 24 well plate to give 2.5×10^5 cells in 750 μL of media per well. The cells are incubated at 37° C. for a period of 6 hours to allow them to adhere to the plate. Thereafter, the cells are washed once with 500 μL of alpha-MEM supplemented with 0.5% (v/v) FBS and then incubated with 750 μL of the same media (low serum) for 3 days. After this period of serum starvation, the low serum medium is removed and the cells are incubated in 500 μL of BBMT for 2 to 3 hours. [BBMT medium is described by P. Brazeau et al., Proc. Natl. Acad. Sci. USA, 79, 7909 (1982).] Thereafter, the cells are infected with HSV-2 (multiplicity of infection=0.02 PFU/cell) in 100 μL of BBMT medium. (Note: The HSV-2 used was strain HG-52, see Y. Langelier and G. Buttin, J. Gen. Virol., 57, 21 (1981); the virus was stored at -80° C.) Following 1 hour of virus adsorption at 37° C., the media is removed and the cells are washed with BBMT (3×250 μL). The cells in each well are incubated with or without (control) appropriate concentrations of the test agent dissolved in 200 μL of BBMT medium. After 29 hours of incubation at 37° C., the infected cells are harvested by first freezing the plate at -80° C., followed by thawing. The cells in each well are scraped off the surface of the well with the help of the melting ice fragments. After complete thawing, the cell suspensions are collected and each well is rinsed with 150 μL of BBMT medium. The viral sample (suspension plus washing) is sonicated gently for 4 minutes at 4° C. Cell debris are removed by centrifugation (1000 times gravity for 10 minutes at 4° C.). The supernatant is collected and stored at -80° C. until determination of viral titer.
Viral titration was performed by a modification of the colorimetric assay method of M. Langlois et al., Journal of Biological Standardization, 14, 201 (1986).
More specifically, in a similar manner as described above, BHK-21/C13 cells are trypsinized and transferred to fresh media in a 96 well microtiter plate to give 20,000 cells in 100 μL of media per well. The cells in the prepared plate are incubated at 37° C. for 2 hours. During that time, the viral sample is thawed and sonicated gently for 15 seconds, and log dilutions of the sample are prepared (1/5 sequential: 50 μL of the sample plus 200 μL of BBMT medium, sequential dilutions being done with a multichannel pipette.
On completion of the above 2 hour incubation of the BHK-21/C13 cells, the media is replaced with alpha-MEM medium supplemented with 3% (v/v) FBS. The cells are now ready to be infected with the various sample dilutions of virus. Aliquots (50 μL) of the various dilutions are transferred into the appropriate wells of the plate. The resulting infected cells are incubated for 2 days at 37° C. Then 50 μL of a 0.15% (v/v) solution of neutral red dye in Hank's Balanced Salt Solution (pH 7.3, Gibco Canada Inc.) is added to each well. The prepared plate is incubated for 45 minutes at 37° C. Medium from each well is then aspirated and the cells are washed once with 200 μL of Hank's Balanced Salt Solution. After the wash, the dye is released from the cells by the addition of 100 μL of a 1:1 mixture of 0.1M Sorensen's citrate buffer (pH 4.2) and ethanol. [Sorensen's citrate buffer is prepared as follows: Firstly, a 0.1M disodium citrate solution is prepared by dissolving citric acid monohydrate (21 g) in 1N aqueous NaOH (200 mL) and adding sufficient filtered H2 O to make 1 L. Secondly, the 0.1M disodium citrate solution (61.2 mL) is mixed with 0.1N aqueous HCl (38.8 mL) and the pH of the resulting solution is adjusted to 4.2 if necessary.] […]

[1] = in vivo; cited from earlier work

IC50 (HSV-2; Human alphaherpesvirus 2, BHK21 (C13), 29 h, agent alone, HSV-2 in BHK-21/C13 cells, 29 hours incubation, read-out: IC50, concentration causing 50% inhibition of virus replication) | IC50 (HSV-2; Human alphaherpesvirus 2, BHK21 (C13), +20 μM of peptide, HSV-2 in BHK-21/C13 cells, read-out: IC50 of acyclovir) | IC50 (HSV-2; Human alphaherpesvirus 2, BHK21 (C13), +30 μM of peptide, HSV-2 in BHK-21/C13 cells, read-out: IC50 of acyclovir) | IC50 (HSV-2; Human alphaherpesvirus 2, BHK21 (C13), +40 μM of peptide, HSV-2 in BHK-21/C13 cells, read-out: IC50 of acyclovir) | IC50 (HSV-2; Human alphaherpesvirus 2, BHK21 (C13), +50 μM of peptide, HSV-2 in BHK-21/C13 cells, read-out: IC50 of acyclovir) | SMILES | side effects [1] | IC50 (HSV-2; 29 h)
1800 nM | 700 nM | 500 nM | 110 nM | 90 nM | Nc1nc2c(ncn2COCCO)c(=O)[nH]1 [acyclovir, 9-[(2-hydroxyethoxy)methyl]guanine] | skin rashes and renal impairment | 
 |  |  |  |  | CC(C)[C@@H](C(=O)N[C@H](C(=O)N[C@@H](CC(=O)N1CCCC1)C(=O)N[C@H](C(=O)N[C@H](CO)CC(C)(C)C)C1(C(=O)O)CCCC1)C(C)(C)C)N(C)C(=O)CCc1ccccc1 [peptide, PhCH2 CH2 CO--N-Me-Val-Tbg-Asp(pyrrolidino)-Asp(cyPn)-{(S)-NHCH[CH2 C(CH3)3 ]CH2 OH}] (Hydrocinnamoyl-[NMeV][Tle]D(Pyrrolidide)[Asp(3,3-(CH2)4)]-{Leu(γ-Me)ol}) |  | 80000 nM
